Reference: article PMC9822769, “The Strange Case: The Unsymmetric Cisplatin-Based Pt(IV) Prodrug [Pt(CH3COO)Cl2(NH3)2(OH)] Exhibits Higher Cytotoxic Activity with respect to Its Symmetric Congeners due to Carrier-Mediated Cellular Uptake” (Bioinorganic Chemistry and Applications, 2022)

Assays:
[1] = system: panel of human cancer cell lines; assay: Antiproliferative activity, panel of human cancer cell lines (average); type: cell-based; conditions: 72 h; for IC50: wild cell panel
Protocol: The compounds under investigation were tested on a panel of commercial human cancer cell lines: ovarian endometrioid adenocarcinoma A2780 (ICLC HTL98008), its cisplatin-resistant variant A2780cisR (ECACC 93112517), colon carcinoma HCT 116 (ECACC 91091005), breast invasive ductal carcinoma MCF7 (ECACC 86012803), embryonal carcinoma NTERA-2 clone D1 (also known as NT2/D1, ICLC HTL97025), and lung adenocarcinoma A549 (ICLC HTL03001). Furthermore, a cell line derived from the pleural effusion of a patient with untreated malignant pleural mesothelioma (MPM) was added to the panel, namely, MM98 (sarcomatoid phenotype). Commercial cells were purchased from the European Collection of Authenticated Cell Cultures (ECACC, UK) or the Interlab Cell Line Collection (ICLC, Genoa, Italy), while the MM98 cell line was obtained from the Pathology Unit of the National Hospital of Alessandria (Italy).
The following media were used to grow the cells: RPMI 1640 (for A2780, A2780cisR, NT2/D1, and A549 cells), DMEM (for MCF7 cells), DMEM supplemented with nonessential amino acids (for MM98 cells), and McCoy's 5A (for HCT 116 cells). […]
To assess the growth inhibition of the compounds under investigation, a cell viability test (i.e., the resazurin reduction assay) was used. […] At the end of the treatment (72 h), viability was evaluated with 100 μg·mL^−1 resazurin (Acros Chemicals, France) in a fresh medium for 1 h at 37°C, and the amount of the reduced product, resorufin, was measured by fluorescence (excitation λ = 535 nm, emission λ = 595 nm) with a Tecan Infinite F200Pro plate reader (Tecan, Austria). In each experiment, cells were challenged with drug candidates at different concentrations, and the final data were calculated from at least three replicates of the same experiment performed in triplicate. The fluorescence of 8 wells containing a medium without cells was used as a blank. Fluorescence data were normalized to 100% cell viability for nontreated cells. […]

A2780 cells = assay: DNA platination in A2780 cells; type: cell-based, human; conditions: A2780, 24 h CT, 10 μM
Protocol: Cells were seeded in 175 cm^2 flasks and treated for 24 h with the complexes under investigation (10 μM) as described previously. From this sample, about 5 × 10^6 cells were taken out for the cellular accumulation analysis (see the previous section), whereas about 20 × 10^6 cells were taken out for the DNA platination analysis.
For DNA platination analysis, cells were transferred to a plastic tube and centrifuged at 1100 rpm for 5 min at room temperature. […]
After washing, DNA was eluted in 300 μL of elution buffer. […] Absorbance at 260 nm (A260, relative to nucleic acids) and 280 nm (A280, relative to proteins) was recorded from triplicate wells.
For each well, A260 and A280 were corrected by subtracting the background, and then the purity of the samples was verified by means of the A260 to A280 ratio. After subtracting the mean A260 from the blank wells, the DNA concentration was calculated from the corrected A260 using a calibration curve obtained with the calf thymus DNA. Under these conditions, an absorbance of 1 unit at 260 nm corresponds to 100 μg of DNA per mL. The remaining amount of DNA elution buffer was transferred to a borosilicate glass tube, and its precise volume was determined by weight to calculate the total amount of DNA and then stored at −20°C until mineralization. […]

Row | Structure (SMILES) | IC50 [1] | potency, times higher than those of 1 and 3 ([1]; panel of human cancer cell lines) | DNA platination (A2780 cells)
1 | N.N.[Cl][Pt][Cl] [Cisplatin, (SP-4-2)-diamminedichloridoplatinum(II)] | 2720 nM | – | –
2 | CC(=O)[O][Pt]([OH])([Cl])[Cl].N.N [Complex 2, (OC-6-44)-acetatodiamminedichloridohydroxidoplatinum(IV)] | 2910 nM | 10–100 times | the highest among Complexes 1–3 and was similar to that of cisplatin
